From US20260007634A1, “PHARMACEUTICAL COMPOSITIONS FOR THE TREATMENT OF ALLERGIC DISEASES” (KINKI UNIVERSITY, priority 2022, published 2026)

Tests used:
[1] = test system: mouse B cells; assay: LPS-stimulated B cell proliferation (trypan blue); assay type: cell-based; details: 10 μM compound, 10 μg/mL LPS 3 days, control 1.66×10^4, LPS 4.25×10^4
Procedure: The inhibitory effect of the compound on B cell proliferation was examined using mouse B cells.
B cells collected from mice were cultured in RPMI 1640 medium for 1 day. Then, 10 μM mangiferin 8a and 10 μM norathyriol were added to B cells, and after 1 day of culture, 10 μg/mL of lipopolysaccharide (LPS) was added to each for 3 days. After 3 days of incubation, the number of viable cells was determined by the trypan blue dye method. Note that LPS was used as an allergic inflammation inducer.
Referring to FIG. 48, the horizontal axis indicates treatment with each compound and the vertical axis indicates cell count (1×10^4 cells/mL). Only 0.5% DMSO in PBS, which was used to dissolve the reagent (compound), was added as control. The LPS group is referred to as the LPS group with 10 μg/mL LPS, the mangiferin 8a group is referred to as the mangiferin 8a group with LPS and mangiferin 8a, and the norathyriol group is referred to as the norathyriol group with LPS and norathyriol.

[2] = test system: IL-6; assay: BAFF-induced IL-6 secretion in B cells (ELISA); assay type: cell-based, mouse; details: DBA/1J spleen B cells; 10 μM compound, 100 ng/mL BAFF, 7 days; control 26.06, BAFF only 454.47
Procedure: Spleens were harvested from 6-week-old male DBA/1J mice and B cells were isolated. After isolation, the cells were cultured in RPMI 1640 medium for 1 day. Then, 10 μM mangiferin 8a and 10 μM norathyriol were added to B cells, and 100 ng/mL of BAFF was added to each 3 h later, and the cells were cultured for 7 days. After 7 days of culture, the culture supernatant was collected and IL-6 secretion was measured by enzyme-linked immunosorbent assay (ELISA). This assay was performed using a mouse IL-6 ELISA kit (R&D).

[3] = test system: IL-6; assay: LPS-stimulated IL-6 secretion in B cells (ELISA); assay type: cell-based, mouse; details: 10 μM compound, 10 μg/mL LPS 2 days, control 9.46, LPS 246.13
Procedure: Mouse B cells were used to examine the inhibition of compounds on IL-6 secretion in LPS stimulation.
(§1) Mouse B cells were cultured in RPMI 1640 medium for 1 day. Then, 10 μM mangiferin 8a and 10 μM norathyriol were added to B cells, and after 1 day of culture, 10 μg/mL of LPS was added to each, followed by 2 days of culture.
(§2) Thus, the samples were divided into “control” with no treatment, “10 μg/mL LPS+10 μM mangiferin 8a” to which 10 μg/mL LPS and 10 μM mangiferin 8a were added, and “10 μg/mL LPS+10 μM norathyriol” to which 10 μg/mL LPS and 10 μM norathyriol were added and only 10 μg/mL LPS was added (“10 μg/L LPS”).
After these samples were incubated for 2 days, the culture supernatant was collected and IL-6 secretion was measured by enzyme-linked immunosorbent assay (ELISA). The mouse IL-6 ELISA kit (R&D) was used for this measurement.

[4] = test system: B cells collected from mice; assay: LPS-induced differentiation into mature B cells (IgM/IgD flow cytometry); assay type: cell-based, mouse; details: 10 μM compound, 10 μg/mL LPS, 10 days
Procedure: B cells collected from mice were cultured in RPMI 1640 medium for 1 day. Then, 10 μM mangiferin 8a and 10 μM norathyriol were added to B cell, and after 1 day of culture, 10 μg/mL of LPS was added, followed by 10 days of culture. After 10 days of culture, cells were stained with anti-IgM and anti-IgD antibodies, markers of B cells, and the expression of IgM and IgD was measured using BD LSRFortessa. Note that IgM negative and IgD negative indicates pre-B cells, IgM positive and IgD negative indicates immature B cells, and IgM positive and IgD positive indicates mature B cells.

[5] = test system: TNFα; assay: LPS-stimulated TNFα secretion in B cells (ELISA); assay type: cell-based, mouse; details: 10 μM compound, 10 μg/mL LPS 2 days, control 15.13, LPS 296.31
Procedure: Mouse B cells were used to examine the inhibition of compounds on TNFα secretion in LPS stimulation.
as §1, §2
(§3) After these samples were incubated for 2 days, the culture supernatant was collected and TNFα secretion was measured by enzyme-linked immunosorbent assay (ELISA). The mouse TNFα ELISA kit (R&D) was used for this measurement.

[6] = test system: TNFα; assay: LPS-stimulated TNFα secretion in macrophages (ELISA); assay type: cell-based, mouse; details: 10 μM compound, 10 μg/mL LPS 2 days, control 24.11, LPS 421.13
Procedure: Mouse macrophages were used to examine the inhibition of compounds on TNFα secretion in LPS stimulation.
Mouse macrophages were cultured in RPMI 1640 medium for 1 day. Then, 10 μM mangiferin 8a and 10 μM norathyriol were added to macrophages, and after 1 day of culture, 10 μg/mL of LPS was added to each, followed by 2 days of culture.
Thus, the samples were divided into “control” with no treatment, “10 μg/mL LPS+10 μM mangiferin 8a” to which 10 μg/mL LPS and 10 μM mangiferin 8a were added, and “10 μg/mL LPS+10 μM norathyriol” to which 10 μg/mL LPS and 10 μM norathyriol were added and only 10 μg/mL LPS was added (“[…] LPS”).
as §3

[7] = test system: B cells collected from mice; assay: LPS-induced differentiation into plasma cells (CD138 flow cytometry); assay type: cell-based, mouse; details: 10 μM compound, 10 μg/mL LPS, 10 days; vs LPS-added group
Procedure: B cells collected from mice were cultured in RPMI 1640 medium for 1 day. Then, 10 μM mangiferin 8a and 10 μM norathyriol were added to B cell, and after 1 day of culture, 10 μg/mL of LPS was added, followed by 10 days of culture. After 10 days of culture, cells were stained with anti-CD138 antibody, a marker of plasma cells, and CD138 expression was measured using BD LSRFortessa.

[8] = test system: Th2 cells; assay: Th2 cell activation in inflammation-induced mouse model (IL-4 flow cytometry); assay type: in vivo; details: DBA/1J mice, Freund's complete adjuvant + bovine type2 collagen; oral 10 mg/kg daily 20 days; thymus cells; vs vehicle group
Procedure: Equal volume mixtures of Freund's complete adjuvant and Bovine type2 collagen were administered to 6-week-old male DBA/1J mice (Japan SLC Inc.) at 0.1 mL (day 0 of the study). 21 days later, DBA/1J mice were again injected with 0.1 mL of the above mixture for secondary immunization. After the second immunization, mice were orally treated with 10 mg/kg of mangiferin 8a and 10 mg/kg of norathyriol daily for 20 days. 20 days later, thymus glands were harvested from mice and stained with anti-CD4 and anti-IL-4 antibodies, which are Th2 cell markers, and expression of IL-4 (CD4 positive) was measured using BD LSRFortessa.

O=c1c2cc(O)c(O)cc2oc2cc(O)cc(O)c12 [norathyriol, 1,3,6,7-tetrahydroxyxanthone] was tested, and the “number of viable cells (cell count)” value [1] was 1.16×10^4 cells/mL, the IL-6 secretion [2] was 61.39 pg/mL and the IL-6 secretion [3] was 56.13 pg/mL. The “population IgM positive and IgD positive (mature B cells)” value ([4]; control 0.239, LPS only 20.7) was 0.065%, the “population IgM positive and IgD negative (immature B cells)” value ([4]; control 1.91, LPS only 41.8) was 2.14% and the “population IgM negative and IgD negative (pre-B cells)” value ([4]; control 96.7, LPS only 36.6) was 97.7%. The TNFα secretion [5] was 64.13 pg/mL, the TNFα secretion [6] was 68.13 pg/mL and the CD138 expression [7] was “significantly decreased CD138 expression”. For the same molecule, the “IL-4 expression (CD4 positive)” value [8] was “markedly reduced”.
